Test system: patients of the REDUCE-IT and earlier EPA placebo-controlled trials
Test: Example 3: adverse events by risk ratio, icosapent ethyl vs placebo (candidate categories; infectious disease terms of interest)
Settings: R-I

CC/C=C\C/C=C\C/C=C\C/C=C\C/C=C\CCCC(=O)OCC [icosapent ethyl, eicosapentaenoic acid ethyl ester]
NNT: Carotid bruit (AE table): 315 | NNT: Cholestasis (AE table): −1.67e+07 | NNT: Chrohn's Disease (AE table): 2045 | NNT: Cognitive Decline: Attention disorders and disturbances (AE table): −8362005 | NNT: Cognitive Decline: Cognitive and attention disorders and disturbances (AE table): −8362005 | NNT: Cough (AE table): −69394 | NNT: Decreased Appetite (AE table): −215 | NNT: Deep Venous Thromboembolism (AE table): 1364 | NNT: Depression: Depressed mood disorders and disturbances (AE table): −340 | NNT: Depression: Depressive disorders (AE table): −314 | NNT: Depression: Depressive disorders - Agitated depression (AE table): −2044 | NNT: Depression: Depressive disorders - Depression (AE table): −408 | NNT: Depression: Depressive disorders - Major depression (AE table): −2044 | NNT: Depression: Depressive disorders - Persistent depressive disorder (AE table): −4088 | NNT: Depression: Mood alterations - Depressed mood (AE table): −3344802 | NNT: Depression: Mood alterations - Depressive symptom (AE table): 4091 | NNT: Depression: Mood alterations with depressive symptoms (AE table): 4096 | NNT: Dermatitis psoriasiform (AE table): −4089 | NNT: Dermatitis, allergic (AE table): 454 | NNT: Diabetic Nephropathy (AE table): 4100 | NNT: ESRD (AE table): 4092 | NNT: Ear infection (AE table): 585 | NNT: Embolism and Thrombosis (AE table): −1358 | NNT: Emphysema (AE table): 511 | NNT: Epilepsy (AE table): −1.67e+07 | NNT: Erectile dysfunction (AE table): 232 | NNT: Furuncle (AE table): 818 | NNT: Gastroenteritis, viral (AE table): 372 | NNT: Gastroesophageal reflux (AE table): 682 | NNT: Gingivitis (AE table): 818 | NNT: Glomerulonephritis and Nephrotic Syndrome (AE table): 1023 | NNT: Guttate psoriasis (AE table): −4089 | NNT: Helicobacter infection (AE table): 1023 | NNT: Hepatitis C (AE table): −4089 | NNT: Herpes Zoster (AE table): 1371 | NNT: Herpes simplex (AE table): 1364 | NNT: Hyperglycemia (AE table): 186 | NNT: Hyperkalemia (AE table): 178 | NNT: Hypertension (AE table): 171 | NNT: Hypertensive Crisis (AE Table): 315 | NNT: Hypokalemia (AE table): −815 | NNT: Hypomagnesemia (AE table): 292 | NNT: Infected bite (AE table): 2046 | NNT: Influenza (AE table): 515 | NNT: Influenza like illness (AE table): 1024 | NNT: Jaundice cholestatic (AE table): −1022 | NNT: Large intestine polyps (AE table): 511 | NNT: Limb Fractures and Dislocations (AE table): 1024 | NNT: Lupus (AE table): 4090 | NNT: Microalbuminuria (AE table): 372 | NNT: Migraine (AE table): −584 | NNT: Mucosal inflammation (AE table): 2046 | NNT: Multiple Sclerosis (AE table): 4090 | NNT: Muscle spasms (AE table): 95 | NNT: NASH (AE table): 818 | NNT: NASH for b/l NFS >0.675 (AE table): 273 | NNT: NASH+Hepatic Steatosis for NFS >0.675 (AE table): 209 | NNT: Nasopharyngitis, Mild Severity (AE table): 516 | NNT: Nephrolithiasis (AE table): −1017 | NNT: Nephropathies (AE table): 455 | NNT: Nephrotic Syndrome (AE table): 4090 | NNT: Orthopnea (AE table): 1023 | NNT: PTSD (AE table): 4092 | NNT: Pancytopenia (AE table): 1023 | NNT: Pneumonia (AE table): 293 | NNT: Proteinuria (AE table): 455 | NNT: Psoriasis (AE table): −341 | NNT: Psoriatic Conditions (AE table): −292 | NNT: Psychosis: Psychotic disorder NEC (AE table): 4091 | NNT: Pulmonary Edema (AE table): 511 | NNT: Respiratory Failure (AE table): 2050 | NNT: Respiratory tract infection (AE table): 1368 | NNT: Rheumatoid Arthritis (AE table): 1363 | NNT: Rhinitis (AE table): 682 | NNT: Schizophrenia NEC (AE table): 4091 | NNT: Sepsis (AE table): 455 | NNT: Severe chronic obstructive pulmonary disease (AE table): 1365 | NNT: Severe dermatitis, allergic (AE table): 1363 | NNT: Severe gastroenteritis (AE table): 1023 | NNT: Severe sepsis (AE table): 585 | NNT: Severe systemic inflammatory response syndrome (AE table): 818 | NNT: Severe urinary tract infection (AE table): 585 | NNT: Systemic inflammatory response syndrome (AE table): 682 | NNT: Tooth infection (AE table): 455 | NNT: Ulcerative Colitis (AE table): 4090 | NNT: Upper respiratory tract infection (AE table): 516 | NNT: Vascular hypertensive disorder (AE table): 124 | NNT: Vulvovaginal mycotic infection (AE table): 682 | NNT: Wheezing (AE table): 315 | Risk Ratio (95% CI): ADHD (AE table): 1.000 (0.141 to 7.097) −1 | Risk Ratio (95% CI): Allergic sinusitis (AE table): 0.500 (0.092 to 2.729) 3 | Risk Ratio (95% CI): Alzheimer's Disease (AE table): 1.000 (0.290 to 3.452) −1 | Risk Ratio (95% CI): Asthma (AE table): 1.076 (0.742 to 1.560) −1 | Risk Ratio (95% CI): Atelectasis (AE table): 0.500 (0.243 to 1.030) 3 | Risk Ratio (95% CI): Bipolar Disease (AE table): 0.333 (0.035 to 3.204) 4 | Risk Ratio (95% CI): Blood CPK increased (AE table): 0.684 (0.485 to 0.964) 2 | Risk Ratio (95% CI): Blood glucose increased (AE table): 0.400 (0.126 to 1.275) 3 | Risk Ratio (95% CI): Bone Fractures (AE table): 2.000 (0.181 to 22.053) −3 | Risk Ratio (95% CI): Bronchiectasis (AE table): 0.500 (0.125 to 1.998) 3 | Risk Ratio (95% CI): Bronchitis chronic (AE table): 0.667 (0.273 to 1.630) 2 | Risk Ratio (95% CI): CKD (AE table): 1.123 (0.766 to 1.646) −1 | Risk Ratio (95% CI): COPD (AE table): 1.084 (0.837 to 1.405) −1 | Risk Ratio (95% CI): Carotid bruit (AE table): 0.435 (0.207 to 0.913) 3 | Risk Ratio (95% CI): Cholestasis (AE table): 1.000 (0.063 to 15.986) −1 | Risk Ratio (95% CI): Chrohn's Disease (AE table): 0.333 (0.035 to 3.204) 4 | Risk Ratio (95% CI): Cognitive Decline: Attention disorders and disturbances (AE table): 1.000 (0.141 to 7.097) −1
